Results taken from article PMC8794255, “Small molecule inhibitor of Igf2bp1 represses Kras and a pro-oncogenic phenotype in cancer cells” (RNA Biology, 2021).
Values joined by “and” are separate entries in the source; they are usually repeats but may differ in a detail not shown here. Equal entries are not always repeated.

Assays:
[1] = molecular target: T1, Igf2bp1 KH12 di-domain (Homo sapiens, UniProt Q9NZI8); experiment: MST, Igf2bp1 KH12 di-domain; type: binding
T1 construct: 6xHis/GST (N, cleaved yes); made in house; host or cells: E. coli BL21(DE3)
Description: (§1) Recombinant full-length Igf2bp1 protein was labelled with RED-tris-NTA dye using a Monolith NT His-Tag Labelling Kit (NanoTemper) while RRM12, KH12 and KH34 di-domain peptides were labelled using the Protein Labelling Kit RED NHS 2nd generation (NanoTemper). Labelled proteins were spun at 15,000 g for 5 min to eliminate aggregates. All samples were 2X labelled protein mix of Igf2bp1 (200 nM) in PBST and were combined (1:1) with serial dilutions of compound or Kras6 RNA in binding buffer (10mMTris pH = 7.5, 100 mM NaCl, 0.1 mM EDTA, 0.06% IPEGAL, 0.02 μg/μL tRNA, 2 mM DTT, 0.1 μg/μL heparin) in final volume of 20 μL, room temperature for 15 min. Samples were then loaded into standard capillaries (NanoTemper) and read in the Monolith NT.115 scanner (NanoTemper) using the red filter with reading conditions of 95% LED power and 40% MST power, 5 sec fluorescence before, 30 sec MST on, 5 sec fluorescence after and 25 sec delay between samples. Results were analysed using the MO Control software (NanoTemper) for curve fitting to KD.
(§2) The open reading frame of Igf2bps were cloned into the pET-21(d) plasmid (Novagen) between the Nco1 and Xho1 sites, as previously described. […]

[2] = system: ES2 cells; experiment: Cell proliferation assay (Incucyte), ES2; type: cell-based, human; conditions: ES2, up to 20 μM
Description: (§3) ES2, H1299 and HEK293 cells were seeded in a 96 well plate (5X10^3 cells per well) for 24 hours before adding the compound at increasing concentrations. After an additional 24 hours, the plate was incubated in an IncuCyte® S3 Live-Cell Analysis System (Essen BioScience). The wells were filmed for 72 hours, and then analysed for proliferation rate Using IncuCyte® S3 Live-Cell Analysis System (Essen BioScience)

[3] = system: ES2 cells; experiment: Wound healing (cell migration) assay, ES2; type: cell-based, human
Description: Cells were seeded in 96 IncuCyte® ImageLock plates (20X10^3 cells per well) for 24 hours, to a near confluency of 95%, before the addition of increasing concentrations of compound. After a further 24 hours, wells were scratched using the IncuCyte® 96-well WoundMaker Tool, and the cells cultured for an additional 48 hours using the IncuCyte® S3 Live-Cell Analysis System (Essen BioScience). The plate was imaged at increments of 120 minutes for a period of 48 hours, and then analysed for relative wound healing.

[4] = system: Igf2bp1-luciferase reporter fusions in RKO cells; experiment: Split-luciferase assay (Igf2bp1 dimerization) in RKO cells; type: cell-based; conditions: 50 μM 7773
Description: Vectors expressing different fragments of split luciferase reporters with flexible linker were procured from Addgene (catalogue # 58786, 58787, 58788 and 58789). The vectors were digested with EcoRI and XhoI. EcoRI and XhoI restriction enzyme sites were added to 5′ and 3′ ends of the coding region of IGF2BP1, respectively, using PCR. We constructed four split luciferase reporter vectors by cloning IGF2BP1 in different orientations with the luciferase fragments . Primers used for the amplification of IGF2BP1 were: […]
The RKO cells were seeded in DMEM with 10% calf serum 24 hrs prior to the transfection. Transfection was done using Lipofectamine 2000 with reporter plasmids and Renilla-luciferase expressing vector (as internal control). After 24 hrs, cells were lysed using passive lysis buffer (Promega catalogue # E1941). The lysates were cleared by centrifugation and its 20 μL volume was mixed with 100 μL of luciferase substrate solution for luminescence recording which was followed by addition of 100 μL of Stop-glo solution (Promega catalogue # E1910) with an additional luminescence reading. Both readings were detected by using GloMax 20/20 Luminometer (Promega), and the final value for each sample was the ratio of their two respective readings. […]

[5] = molecular target: T2, Igf2bp2 (Homo sapiens, UniProt Q9Y6M1); experiment: MST, Igf2bp2; type: binding
T2 construct: made in house

[6] = system: Kras protein in H1299 cells; experiment: Western blot of Kras protein in H1299 cells; type: cell-based, human; conditions: H1299, 10 and 20 μM 7773, 48 hours
Description: Western blots were performed as described. For fluorescent westerns, cell lysates were prepared with phosphatase inhibitors (β-Glycerophosphate and Sodium orthovanadate) and a protease inhibitor (cOmplete™, Mini Protease Inhibitor Cocktail, Roche 04693124001), membranes were read using a Li-Core Odyssey laser scanner, and results analysed using Image Studio Lite software.
The following primary antibodies were used: mouse anti-total ERK (p44/42 MAPK (Erk1/2) L34 F12 Cell Signalling 4696s), mouse anti-Kras (CPTC-KRAS4B-2, DSHB) rabbit anti-dpERK, (p44/42 MAPK, Cell Signalling 4370), rabbit anti-alpha/beta tubulin (Cell Signalling 2148), goat anti-rabbit IgG-HRP (Jackson), goat anti-mouse IgG-HRP (Jackson). Secondary antibodies for fluorescent westerns: donkey anti-mouse 800 (Rockland 610–732-124), goat anti-rabbit 680 (Molecular Probes A21076).

[7] = molecular target: T3, Igf2bp1 KH34 di-domain (Homo sapiens, UniProt Q9NZI8); experiment: MST, Igf2bp1 KH34 di-domain; conditions: read-out: KD of binding to KH34
T3 construct: Human Igf2bp1 di-domains RRM12 (M1-P188) and KH34 (P387-A574); 6xHis (N, cleaved yes); made in house; host or cells: E. coli BL21(DE3)
Description: as §1, §2

[8] = system: HEK293 cells; experiment: Cell proliferation assay (Incucyte), HEK293; type: cell-based, human; conditions: HEK293, up to 20 μM
Description: as §3

T3 sequence (Q9NZI8 387-574): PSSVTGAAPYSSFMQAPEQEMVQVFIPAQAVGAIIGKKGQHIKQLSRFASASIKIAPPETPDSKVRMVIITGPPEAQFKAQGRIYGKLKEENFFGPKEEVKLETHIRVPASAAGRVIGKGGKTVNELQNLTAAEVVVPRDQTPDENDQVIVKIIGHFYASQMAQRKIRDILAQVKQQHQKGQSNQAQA
T2 sequence (Q9Y6M1 whole entry, species assumed): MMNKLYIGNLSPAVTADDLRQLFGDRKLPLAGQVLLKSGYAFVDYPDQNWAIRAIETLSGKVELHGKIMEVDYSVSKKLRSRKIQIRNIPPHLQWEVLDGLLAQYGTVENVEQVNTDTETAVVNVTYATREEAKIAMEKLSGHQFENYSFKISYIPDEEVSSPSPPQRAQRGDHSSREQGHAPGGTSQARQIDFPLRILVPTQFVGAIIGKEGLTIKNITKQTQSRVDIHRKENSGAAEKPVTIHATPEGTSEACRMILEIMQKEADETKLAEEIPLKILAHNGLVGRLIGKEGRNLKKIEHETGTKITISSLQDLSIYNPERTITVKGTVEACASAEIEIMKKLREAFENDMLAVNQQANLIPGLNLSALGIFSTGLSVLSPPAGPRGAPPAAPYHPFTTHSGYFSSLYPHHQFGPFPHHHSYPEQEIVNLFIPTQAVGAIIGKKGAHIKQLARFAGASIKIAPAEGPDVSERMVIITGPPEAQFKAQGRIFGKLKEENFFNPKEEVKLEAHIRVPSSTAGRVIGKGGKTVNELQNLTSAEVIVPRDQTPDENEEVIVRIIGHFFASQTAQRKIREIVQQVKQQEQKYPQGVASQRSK
T1 sequence (Q9NZI8 194-369): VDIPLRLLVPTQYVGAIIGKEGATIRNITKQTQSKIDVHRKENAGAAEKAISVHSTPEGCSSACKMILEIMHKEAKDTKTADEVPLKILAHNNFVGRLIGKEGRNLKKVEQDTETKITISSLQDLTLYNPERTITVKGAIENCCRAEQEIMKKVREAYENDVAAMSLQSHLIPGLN

In the case of O=C(c1ccc(Cn2cnnn2)cc1)N1CCCC(Nc2ccc3c(c2)OCO3)C1 (stereo not shown) [compound 7773], the “Binding to KH12” value [1] is reported as “no binding was observed”, the Cell proliferation [2] is reported as “remarkably unaffected” and the Wound healing ([3]; ES2, 20 μM) is reported as “strongly inhibited”. For the same compound, the Wound healing ([3]; ES2, lowest concentration 5 μM) was “discernible inhibition”, the “Effect on split-luciferase luminescence” value [4] was “significantly reduced luminescence” and the Kd ([5]; IGF2BP2 50nM, read-out: KD of binding to Igf2bp2) was greater than 150 µM. For the same compound, the “Binding to Igf2bp2” value ([5]; even at concentrations that almost saturate binding to Igf2bp1) was “did not significantly bind”, the Kras protein level [6] was “dose-dependent reduction” and the Kd [7] was 7.1 µM and 7.2 µM. For the same compound, the Cell proliferation [8] was “remarkably unaffected”.
